Measurements as given in patent publication US20120083464A1, “NEUROPROTECTIVE PROPERTIES OF 5'-METHYLTHIOADENOSINE” (priority 2009, published 2012).
Entries after “also recorded” stand apart in the source; their conditions may differ.

Key:
[1] = test system: rats after focal ischemia (MCAO); format: in vivo
isolated optic nerve = assay: Simulated ischemia (OGD) in isolated optic nerves, LDH release; design: species or system Sprague Dawley rats; details: 1 h ischemia with iodoacetate + 2 h reperfusion; MTA 100-300 μM
Procedure: Ischemic damage was induced by substituting […] and adding 1 mM of the glyocolytic blocker iodoacetate (1 mM) for 1 h followed by 2 h of reperfusion in […] aCSF. Optic nerves during ischemia and reperfusion were incubated with vehicle, for controls, and with MTA or glutamate receptor antagonists, and subsequently processed for LDH release assay. The results are the mean±SEM of at least three different experiments performed in duplicate.
Cell viability in oligodendrocyte cultures was assayed after 24 h of exposure to MTA (1 μM to 3 mM) calcein-AM assays respectively followed by fluorimetry measurements (Synergy-HT). Oligodendrocyte protection from excitotoxicity and optic nerve damage after ischemia (1 hour+2 hours reperfusion) were examined using lactate dehydrogenase release assays in the presence or absence of MTA (100-300 μM for 3 hours).

[2] = test system: cerebellar organotypic cultures; assay: LPS neuroinflammation model in cerebellar organotypic cultures: demyelination and axonal damage (immunofluorescence, Western blot); format: cell-based, C57/B16 wild type mice; details: 192 μM MTA pre-treatment for half hour, 15 μg/ml LPS, 24 hrs
Excerpt: Organotypic cultures model of neuroinflammation is based on previous observations in which systemic injections of lipopolysaccharide (LPS) in mice spinal cord induce inflammation, demyelinization and Wallerian degeneration. In mice cerebellar organotypic cultures, LPS induces microglia activation with consequent demyelination and axonal damage. In particular, LPS induces TNF-alpha, IL1-beta release, axonal swelling and end bulbs due to axonal transport block, and a decrease of axonal density. Organotypic cultures represent the best model to represent in vivo mechanisms since they maintain cell-cell interaction and organotypic structure of brain region studied. In this way, this in vitro neuroinflammation model reproduces the microglia activation, demyelinization and axonal damage phenomena observed in MS.
Cerebellar organotypic cultures which were pre-treated for half hour with 192 μM of MTA and 15 μg/ml of LPS have been used to generate neuroinflammation model.
2. Data analysis: Western blot, immunofluorescence and ELISA analysis were performed using conventional techniques.

[3] = test system: hippocampal neurons after pilocarpine-induced status epilepticus; assay: Pilocarpine model of temporal lobe epilepsy (status epilepticus), hippocampal histology; format: in vivo, Sprague-Dawley rats; details: for quantification of cells in area CA1 at 30 days after SE: preliminary
Excerpt: We compared two MTA treatment regimens to examine its neuroprotective effect on pilocarpine-induced SE in adult rats. One regimen involved 5 days of MTA treatment beginning beginning 2 days before SE (pre-SE MTA). The other regimen, a more clinically relevant protocol, consisted of MTA treatment for 3 days beginning at the termination of SE (post-SE MTA).
Young adult (175-200 g), male Sprage-Dawley rats were divided into four MTA treatment groups, 9-11 rats per group. In group A, rats were subjected to pilocarpine-induced status epilepticus (SE). Following 90 minutes of continuous seizure activity, SE was stopped by a single administration of diazepam (10 mg/kg). The rats were injected either with vehicle or MTA once daily for 3 days. Rats were sacrificed at day 4 after SE, and their brains perfusion fixed, frozen and sectioned for histology. In group B, treatment of rats was the same as Group A except that the rats were sacrificed at day 30 after SE. In group C, rats were treated with MTA once daily for two days. On the third day, rats underwent pilocarpine-induced SE. The rats were continuously treated with MTA once daily for 3 more days; controls received placebo The rats were then anesthetized and sacrificed day 4 after SE. In group D, rats were treated the same way as Group C except that the rats were sacrificed on 30 days after SE.
The sections were subjected to cresyl violet (Nissl) staining and NeuN immunostaining to examine cell loss. Timm staining to identify mossy fiber sprouting was performed on the 30-day survival group.

PC12 cells = assay: Neurite differentiation assay in PC12 cells; format: cell-based, rat
Procedure: The PC12 cells were maintained in HAM's medium at 37° C., supplemented with 2.5% of fetal bovine serum, 15% of horse serum and penicillin/streptomycine. The neurite differentiation assays were conducted using 24-well plates treated with collagen in HAM's medium supplemented with 0.5% of fetal bovine serum and penicillin/streptomycine. NGF (100 ng/ml) or MTA at different concentrations (25 μM, 100 μM and 2 mM) were added to the cultures and, after four days, the percentage of cells with neurites longer than twice cell body. In each experiment a minimum of 300 cells were randomly counted.

[4] = test system: MAPK, p38/SAPK and STAT3 pathways; assay: Intracellular phosphorylation in PC12 cells (Luminex); format: cell-based, rat; details: PC12 cells after MTA-induced differentiation, four days
Excerpt: The phosphorylation of different intracellular proteins was detected using Luminex technology. After the neurite differentiation assay the PC12 cells were received in lysis buffer and tested using different antibodies: total Akt/PKB, total p38/SAPK, total STAT3, total ERK/MAPK, total P70 S6 Kinase, phosphorolyated Akt/PKB (Ser473), phosphorylated Akt/PKB (Thr 308), phosphorylated p38/SAPK (Thr180/Tyr182), phosphorilyated STAT 3 (Tyr705/Ser 727), phosphorylated ERK/MAPK (Thr185/Tyr187) and phosphorylated P70 S6 Kinase (Thr412).

RN22 cells = assay: Hydrogen peroxide stress in RN22 cells, ROS levels; format: cell-based, rat; details: hydrogen peroxide 100 μM, different time periods
Procedure: RN22 cells were maintained at 37° C. in DMEM medium supplemented with 10% of fetal bovine serum and penicillin/streptomycine. The assays against stress with copper sulphate were conducted using 24-well plates in DMEM medium without serum. After allowing cell adherence for three days, NGF (100 ng/ml) or MTA was added to different concentrations half an hour before the copper sulphate (150 μM). After twenty-four hours, cell viability was quantified by MTT assay and ROS production was quantified by fluorescence. Assays against stress with hydrogen peroxide were conducted in the same way as the foregoing, using 100 μM hydrogen peroxide as a stress-producing agent.
We determined the quantity of ROS produced by the cells after stress with and without treatment. 2′,7′- dichlorodihydrofluorescein (DCFH) is generally used to measure oxidative stress in cells. The cells were incubated with DCFH-DA (10 μM) at 37° C. for thirty minutes. After incubation, the cells were washed twice with PBS and lysed by adding 10 mM Tris-HCL buffer containing 0.5% of Tween 20. The homogenates were then centrifuged at 10,000 g for ten minutes to separate the cell residue and […] fluorescence in the supernatant was measured using a fluorometer (excitation wavelength 492-495 nm, emission wavelength 517-527 nm) (Invitrogen).

Compound: CSC[C@H]1O[C@@H](n2cnc3c(N)ncnc32)[C@H](O)[C@@H]1O [MTA, 5′-methylthioadenosine]
- damaged area (TTC staining) versus vehicle ([1]; MTA 30 mg/kg i.p. twice daily from 30 min after onset of ischemia, 3 days of reperfusion): did not show a reduction; also recorded: does not protect
- toxicity to rats after ischemia ([1]; MTA 100 mg/kg i.p. twice daily): toxic
- OGD/ischemia-induced damage in isolated optic nerve (LDH release) (isolated optic nerve): similarly protective
- demyelination and axonal damage (MBP/NFL immunofluorescence, CNPase/APP Western blot) [2]: prevents; also recorded: absents
- hippocampal neuronal loss, qualitative (Nissl stain, NeuN immunohistochemistry) ([3]; MTA started before or after SE, early and late timepoints, dentate hilus, CA1, CA3): qualitatively reduced neuronal loss; also recorded: qualitatively more Nissl-stained cells
- mossy fiber sprouting (Timm stain) ([3]; late timepoint, either MTA group): No qualitative difference
- quantification of cells in area CA1 at 30 days after SE ([3]; post-SE MTA group, p=0.057): trend toward neuroprotection; also recorded: non-significant trend toward increased cell numbers
- hippocampal NeuN immunoreactivity at 30 days after SE (representative example) ([3]; post-SE MTA, dentate gyrus): only mild cell loss
- quantification of cells in area CA1 at 30 days after SE ([3]; pre-SE MTA group, p=0.02): significant neuroprotective effects
- hippocampal NeuN immunoreactivity at 30 days after SE (representative example) ([3]; pre-SE MTA, dentate gyrus and pyramidal cell layer): good preservation of neurons
- neurite development at the highest concentration tested (PC12 cells; MTA 5 mM): does not affect neurite development
- most optimal MTA concentration for formation of new neurites (PC12 cells; four days): 1 mM
- neurite differentiation (formation of new processes) (PC12 cells; four days, concentration dependent): develop new processes
- phosphorylation of intracellular proteins: MAPK, p38/SAPK and STAT3 pathways [4]: activation
- ROS production under hydrogen peroxide stress (RN22 cells): capable of reducing ROS production
